Patent US20220071970A1, “QUINUCLIDINE-3-ONE DERIVATIVES AND THEIR USE IN CANCER TREATMENT” (Aprea Therapeutics AB, priority 2018, published 2022)

Columns and labels:
[1] = test system: MDA-MB-231-Luc human breast cancer cell line carrying mutant p53 (R280K); test: In vivo efficacy study, orthotopic MDA-MB-231-Luc breast cancer xenograft in nude mice; design: species or system nude mice (Hsd:AthymicNude-Foxnlnu); settings: 42 or 125 mg/kg intraperitoneally twice daily, 3 cycles of 5 days, compared to control animals
Experimental: A: Luciferase luminescence from mice xenografted with MDA-MB-231-Luc breast cancer cells. B: Tumor weight at day 33 after beginning of treatment.
The compound of Example 4 was administered intraperitoneally twice daily at 42 or 125 mg/kg to nude mice (Hsd:AthymicNude-Foxnlnu) ortotopically xenografted with the human breast cancer cell line MDA-MB-231-Luc, carrying mutant p53 (R280K). To make MDA-MB-231-Luc, the cell line MDA-MB-231 was stably transfected with a synthetic gene for firefly luciferase, Luc2 (pGL4, Promega). Thereby, the tumor load may be externally monitored by luminescence measurement (radiance values; photon/second/cm^2/steradian). 5×10^6 MBA-MB-231-luc cells were injected, and eight days later the animals were stratified into treatment groups and control, 8 animals in each group, based on luminescence measurement. Treatment was started on day 11 and done in 3 cycles of 5 days each, with 2 days recovery. Tumor progression was evaluated by non-invasive in vivo imaging during the second cycle (day 18) and at the end of treatment (day 32). On day 33, the animals were sacrificed and the tumors excised and weighed.

[2] = test system: SaOS-2 His273 mtp53 human osteosarcoma cell line; test: In vitro efficacy study using the SaOS-2 His273 protocol (CellTiter-Glo viability, 72 h); type: cell-based; settings: SAOS-2, growth suppression, 72 hours incubation, CellTiter-Glo, read-out: SaOS-2 His273 IC50
Experimental: SaOS-2 His273 mtp53 is a human osteosarcoma cell line which has been genetically engineered at OnkPat CCK to express His273 mutated p53.
3000 cells/well (50 μl) were seeded into masked (black or white with clear bottom) 96-well cell culture plates using Iscove's Modified Dulbecco's Medium supplemented with 10% heat inactivated (56° C. for 60 min) fetal calf serum. The plates were then incubated for 4 hours, allowing the cells to attach. The test compounds were dissolved in DMSO or water to a concentration of 0.01 M and then further diluted to desired concentrations using the cell medium. 50 μl of freshly diluted test compound from fresh stock was added to the wells. The plates were then incubated for 72 hours.
For viability detection, CellTiter-Glo® Luminescent Cell Viability Assay (CTG) was used. CTG is a homogeneous “add-mix-measure” format method of determining the number of viable cells in culture based on quantitation of the ATP present, an indicator of metabolically active cells. The luminescence was measured using the PerkinElmer Victorx4 instrument.
The average of the signal values for the untreated cells was calculated for each plate. The % of growth suppression was calculated as:
100−((Signal sample/Signal untreated cells)×100).
The results of the SaOs-2 His273 analyses were expressed as IC50 values, i.e. concentration that suppresses growth of at least 50% of the cells. The IC50 values of various compounds according to the invention and of some comparative compounds are shown in Table 1, Table 2, Table 3 and Table 4.

Structure (SMILES): O=C1C2CCN(CC2)C1CNC(=O)C(F)(F)F (racemic) [Example 4, 2,2,2-trifluoro-N-((3-oxoquinuclidin-2-yl)methyl)acetamide]
- tumor cell migration as measured by radiance of luminescence (FIG. 1A) ([1]; imaging day 18 and day 32): reduced tumor cell migration compared to control animals
- tumor weight (FIG. 1B) ([1]; tumors excised day 33): reduced tumor weight compared to control animals
- IC50 [2]: 5.6 µM
